Experimental data taken from patent EP0105732A2, “Histamine H2 receptor antagonists of the benzisothiazole amino and benzthiadiazine amino series” (BEECHAM GROUP PLC, priority 1982, dated 1984).
Each block holds one compound with its values, some of them ahead of it.

Legend:
histamine H2-receptor = molecular target: T1, histamine H2-receptor (Cavia porcellus, UniProt P47747); assay: Guinea-pig isolated atria (antagonism of histamine positive chronotropic response); type: cell-based
T1 construct: The atria were dissected free and mounted in a jacketed 5 ml capacity tissue bath; from tissue; host or cells: guinea-pig isolated atria
Method: This test is designed to specifically detect histamine H2-receptor antagonists. Guinea-pigs of either sex, weighing between 250 and 500 g, were killed by cervical dislocation and exsanguination. The heart was removed and placed in cold McEwens solution. The atria were dissected free and mounted in a jacketed 5 ml capacity tissue bath containing McEwens solution maintained at 32 °C and gassed with a 95% oxygen, 5% carbon dioxide gas mixture. Atrial beating was detected by an auxotonic lever and from thence recorded on a Devices MX2 hot wire pen recorder. Atrial rate was derived from the amplified force signal using a Devices Instantaneous Ratemeter and recorded on the MX2 pen recorder. […] To avoid disruption of the tissue by repeated washing, responses to cumulative concentrations of histamine were obtained in the absence (control) and then presence of various concentrations of test compounds. The ability to antagonise histamine mediated positive chronotropic responses of this tissue is believed to be specific for H2-receptor antagonists. Such activity was assessed by examining the ability of test compounds to shift to the right the plotted concentration/response curves to histamine.

gastric acid secretion = assay: perfused rat stomach preparation (histamine-stimulated acid secretion, anaesthetised rat); type: in vivo; conditions: bolus intravenous, maximal reduction in hydrogen-ion concentration as percentage of control, histamine infusion; for inhibition in vivo at 0.2 µmol/kg: dose 0.2 µmole/kg; for inhibition in vivo at 1 µmol/kg: dose 1 µmole/kg; for inhibition in vivo at 0.5 µmol/kg: dose 0.5 µmole/kg; for inhibition in vivo at 0.1 µmol/kg: dose 0.1 µmole/kg
Method: The ability of the compounds of the invention to modify the pH of gastric acid secretion was investigated as follows:
The modified (1) perfused stomach preparation (2) of the urethane (25% solution) anaesthetised rat, maintained at 37°C, allows the continuous measurement of pH during basal and stimulated acid secretion.
The lumen of the stomach of male Wistar rats (approximately 200 g bodyweight) was perfused, via a cannula designed to reduce the dead space of the stomach, with 5% glucose solution (37°C) at the rate of 3 ml/min. The perfusate was forced over the surface of the secretory mucosa only, the antrum being excluded. The effluent then passed over a microflow-type glass pH eletrode via a collecting funnel situated in the non- glandular forestomach.
The secretagogue histamine was administered as a constant intravenous infusion to produce a steady rate of acid secretion. Test compounds were administered in solution as bolus intravenous injections and any effect on the pH of the perfusate noted. The perfusate pH was recorded on a potentiometric recorder and anti-secretory responses were measured in terms of the maximal reduction in hydrogen-ion concentration expressed as a percentage of the control concentration.

[1] = Concentration 7.5 x 10^-8 Molar, 0.075 µM
[2] = Concentration 5 x 10^-7 Molar, 0.5 µM
[3] = Concentration 2.5 x 10^-7 Molar, 0.25 µM

T1 sequence (P47747 whole entry): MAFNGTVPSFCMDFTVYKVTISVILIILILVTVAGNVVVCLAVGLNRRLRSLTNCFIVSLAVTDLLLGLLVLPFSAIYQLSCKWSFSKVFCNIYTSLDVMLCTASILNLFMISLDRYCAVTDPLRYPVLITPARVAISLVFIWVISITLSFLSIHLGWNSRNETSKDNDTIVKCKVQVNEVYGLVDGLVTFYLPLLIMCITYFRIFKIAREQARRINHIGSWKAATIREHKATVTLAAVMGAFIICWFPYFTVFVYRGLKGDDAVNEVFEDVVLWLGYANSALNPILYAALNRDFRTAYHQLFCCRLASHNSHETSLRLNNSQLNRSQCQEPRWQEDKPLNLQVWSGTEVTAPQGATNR

SMILES: CN(C)Cc1ccc(CSCCNC2=NS(=O)(=O)c3ccc([N+](=O)[O-])cc32)o1 [Example 5, N-[2-(5-dimethylaminomethylfuran-2-ylmethylthio)ethyl] 5-nitro-1,2-benzoisothizaole-3-amine-1,1-dioxide]
inhibition in vivo at 2 µmol/kg (gastric acid secretion; dose 2 µmole/kg): 80%

SMILES: CN(C)Cc1ccc(CSCCNC2=NS(=O)(=O)c3cc([N+](=O)[O-])ccc32)o1 [Example 6]
Activity (Decrease in Histamine Potency) (histamine H2-receptor; [2]): Active
inhibition in vivo at 1 µmol/kg (gastric acid secretion): 75%

SMILES: CN(C)Cc1ccc(CSCCNC2=NS(=O)(=O)c3c2cccc3[N+](=O)[O-])o1 [Example 7, N-2-(5-dimethylamihomethylfuran-2-ylmethylthioethyl] -7-nitro-1,2-benzoisothizaole-3-amine-1,1-dioxide]
inhibition in vivo at 0.5 µmol/kg (gastric acid secretion): 68%

SMILES: CN(C)Cc1ccc(CSCCNC2=NS(=O)(=O)c3cc(Cl)ccc32)o1 [Example 8, N-[2-(5-dimethylaminomethylfuran-2-ylmethylthio)ethyl]-6-chloro-1,2benzoisothiazole-3-amine-1,1-dioxide]
Activity (Decrease in Histamine Potency) (histamine H2-receptor; Concentration 1 x 10^-5 Molar, 10 µM): Active
inhibition in vivo at 5 µmol/kg (gastric acid secretion; dose 5 µmole/kg): 75%

SMILES: CN(C)Cc1ccc(CSCCNC2=NS(=O)(=O)c3cc(S(=O)(=O)N(C)C)ccc32)o1 [Example 9, N-[2-(5-Dimethylaminomethylfuran-2-ylmethylthio)ethyl] -6-dimethylsulphamoyl-1,2-benzoisothizaole-3-amine-1,1-dioxide]
inhibition in vivo at 0.1 µmol/kg (gastric acid secretion): 89%

SMILES: N=C(N)Nc1nc(CSCCNC2=NS(=O)(=O)c3cccc([N+](=O)[O-])c32)cs1 [Example 13, N-[2-(2-guanidinothiazol-4-ylmethylthio)ethyl]-4-nitro-1,2-benzoisothiazole-3-amine-1,1-dioxide]
Activity (Decrease in Histamine Potency) (histamine H2-receptor; Concentration 1 x 10^-6 Molar): Active

SMILES: CN(C)Cc1ccc(CSCCNC2=NS(=O)(=O)c3c(N)cccc32)o1 [Example 15, N^3-[2-(5-dimethylaminomethylfuran-2-lmethylthio)ethyl]-1,2-benzoisothiazole-3,7-diamine-1,1dioxide]
inhibition in vivo at 0.4 µmol/kg (gastric acid secretion; dose 0.4 µmole/kg): 60%

SMILES: CN(C)Cc1ccc(CSCCNC2=Nc3ccccc3S(=O)(=O)N2)o1 [Example 39, N-[2-({5-Dimethylaminomethylfuran-2-yl)methylthio)ethyl] 1,2,4-benzothiadiazine-3-amine-1,1-dioxide]
Activity (Decrease in Histamine Potency) (histamine H2-receptor; Concentration 1 x 10^-6 Molar): Active
inhibition in vivo at 0.5 µmol/kg (gastric acid secretion): 78%

SMILES: O=S1(=O)NC(NCCCOc2cccc(CN3CCCCC3)c2)=Nc2ccccc21 [Example 40, N-[3-(3-{1-piperidylmethyl}phenoxy)propyl]-1,2,4-benzothia-diazine-3-amine-1,1-dioxide]
inhibition in vivo at 0.5 µmol/kg (gastric acid secretion): 94%

Now from value to compound, other results behind:

Activity (Decrease in Histamine Potency) (histamine H2-receptor; Concentration 7.5 x 10^-7 Molar, 0.75 µM): Active
SMILES: CN(C)Cc1ccc(CSCCNC2=NS(=O)(=O)c3cccc([N+](=O)[O-])c32)o1 [Example 1, N-[2-(5-dimethylaminomethylfuran-2-ylmethylthio)ethyl]4-nitro-1,2-benzoisothiazole-3-amine-1,1-dioxide]
inhibition in vivo at 0.2 µmol/kg (gastric acid secretion): 87%

Activity (Decrease in Histamine Potency) (histamine H2-receptor; [1]): Active
SMILES: CN(C)Cc1ccc(CSCCNC2=NS(=O)(=O)c3cccc(N)c32)o1 [Example 2, N^3-[2-(5-dimethylaminomethylfuran-2-ylmethylthio)ethyl]1,2-benzoisothiazole-3,4-diamine-1,1-dioxide]
inhibition in vivo at 0.2 µmol/kg (gastric acid secretion): 100%

Activity (Decrease in Histamine Potency) (histamine H2-receptor; [2]): Active
SMILES: CN(C)Cc1ccc(CSCCNC2=NS(=O)(=O)c3ccccc32)o1 [Example 3, N-[2-(5-dimethylaminomethylfuran-2-ylmethylthio)ethyl]-1,2-benzoisothiazole-3-amine-l,1-dioxide]
inhibition in vivo at 1 µmol/kg (gastric acid secretion): 100%

Activity (Decrease in Histamine Potency) (histamine H2-receptor; [3]): Active
SMILES: O=S1(=O)N=C(NCCCOc2cccc(CN3CCCCC3)c2)c2ccccc21 [Example 10, N-[3-(3-piperid-1-ylmethylphenoxy)propyl]-1,2-henzoiso-thiazole-3-amine-1,1-dioxide]
inhibition in vivo at 0.5 µmol/kg (gastric acid secretion): 100%

Activity (Decrease in Histamine Potency) (histamine H2-receptor; Concentration 1 x 10^-7 Molar, 0.1 µM): Active
SMILES: O=[N+]([O-])c1cccc2c1C(NCCCOc1cccc(CN3CCCCC3)c1)=NS2(=O)=O [Example 11, N-[3-(3-piperid-1-ylmethylphenoxy)propyl]-4-nitro-1,2-benzoisothiazole-3-amine-1,1-dioxide]
inhibition in vivo at 0.5 µmol/kg (gastric acid secretion): 100%

Activity (Decrease in Histamine Potency) (histamine H2-receptor; Concentration 1 x 10^-6 Molar): Active
SMILES: CN(C)Cc1cccc(OCCCNC2=NS(=O)(=O)c3ccccc32)c1 [Example 12, N-[3-(3-dimethylaminomethylphenoxy)propyl]-1,2-benzoiso-thiazole-3-amine-1,1-dioxide]
inhibition in vivo at 0.5 µmol/kg (gastric acid secretion): 94%

Activity (Decrease in Histamine Potency) (histamine H2-receptor; [2]): Active
SMILES: CN(C)Cc1ccc(CSCCNC2=NS(=O)(=O)c3cc(N)ccc32)o1 [Example 14, N^3-[2-(5-dimethylaminomethylfuran-2-ylmethylthio)ethyl]-1,2-benzoisothiazole-3,6-diamine-1,1-dioxide]
inhibition in vivo at 0.2 µmol/kg (gastric acid secretion): 60%

Activity (Decrease in Histamine Potency) (histamine H2-receptor; [1]): Active
SMILES: Nc1cccc2c1C(NCCCOc1cccc(CN3CCCCC3)c1)=NS2(=O)=O [Example 16, N^3-[3-(3-piperid-1-ylmethylphenoxy)propyl]-1,2-benzoiso-thiazole-3,4-diamine-1,1-dioxide]
inhibition in vivo at 0.1 µmol/kg (gastric acid secretion): 100%

Activity (Decrease in Histamine Potency) (histamine H2-receptor; [3]): Active
SMILES: NC(N)=Nc1nc(CSCCNC2=NS(=O)(=O)c3cccc(N)c32)cs1 [Example 20, N^3-[2-('2-guanidinothiazole-4-ylmethylthio)ethyl]-1,2-benzoisothiazole-3,4-diamine-1,1-dixide]
inhibition in vivo at 0.2 µmol/kg (gastric acid secretion): 100%
